In the CheMixHub viscosity set:

Test: xn = mol fraction of the nth substance listed

CCCCC(C)=O + CCCCOC(C)=O
298.15 K, 101.33 kPa
Settings | viscosity [mPa·s]
x2 = 0.1073 | 0.595
x2 = 0.1861 | 0.601
x2 = 0.3117 | 0.611
x2 = 0.4115 | 0.62
x2 = 0.5224 | 0.63
x2 = 0.6318 | 0.64
x2 = 0.7471 | 0.649
x2 = 0.8669 | 0.663

CCCCCCCCCCCCCC + CCCCOC(C)=O
298.15 K, 101.3 kPa
Settings | viscosity [mPa·s]
x2 = 0.1284 | 1.825
x2 = 0.2404 | 1.622
x2 = 0.3362 | 1.467
x2 = 0.4227 | 1.339
x2 = 0.5018 | 1.23
x2 = 0.5367 | 1.183
x2 = 0.5715 | 1.142
x2 = 0.6959 | 0.9335
x2 = 0.8024 | 0.8736
x2 = 0.8903 | 0.7842
x2 = 0.948 | 0.7283

O=[N+]([O-])c1ccccc1 + CCCCOC(C)=O
viscosity [mPa·s], 101 kPa
Settings | 298.15 K | 308.15 K
x2 = 0.0477 | 1.576 | 1.399
x2 = 0.151 | 1.23 | 1.152
x2 = 0.2493 | 1.006 | 0.979
x2 = 0.35 | 0.848 | 0.849
x2 = 0.4488 | 0.743 | 0.755
x2 = 0.5 | 0.704 | 0.717
x2 = 0.5514 | 0.672 | 0.685
x2 = 0.6512 | 0.632 | 0.637
x2 = 0.7484 | 0.616 | 0.607
x2 = 0.8504 | 0.622 | 0.591
x2 = 0.9435 | 0.648 | 0.589
